In experiment [1] the target is T1, Myo1C^35-ΔTH1 (acto·Myo1C^35-ΔTH1) (Homo sapiens, UniProt O00159).
T1 construct: 35-residue N-terminal extension + motor domain + 3 IQ motifs + post-IQ; C-terminal 176-residue TH1 domain replaced by C-terminal octa-histidine tag; coproduced with human calmodulin in baculovirus/Sf9; with Calmodulin-1; Actin, alpha skeletal muscle (Gallus gallus, chicken pectoralis major muscle F-actin, pyrene-labeled)
In words: stopped-flow, ADP inhibition of ATP-induced dissociation from pyrene-labeled F-actin, slow-phase amplitude fraction. The class given is binding. The source says:
stopped-flow, ADP inhibition of ATP-induced dissociation from pyrene-labeled F-actin, slow-phase amplitude fraction on Myo1C^35-ΔTH1 (acto·Myo1C^35-ΔTH1)

For experiment [2], the target named is T1, Myo1C^35-ΔTH1 (acto·Myo1C^35-ΔTH1). Kind of experiment: stopped-flow, ATP-induced dissociation from pyrene-labeled F-actin, fast phase. In kind it is binding. The source says: stopped-flow, ATP-induced dissociation from pyrene-labeled F-actin, fast phase on Myo1C^35-ΔTH1 (acto·Myo1C^35-ΔTH1)

T1 sequence (O00159 1-887, stated change not applied): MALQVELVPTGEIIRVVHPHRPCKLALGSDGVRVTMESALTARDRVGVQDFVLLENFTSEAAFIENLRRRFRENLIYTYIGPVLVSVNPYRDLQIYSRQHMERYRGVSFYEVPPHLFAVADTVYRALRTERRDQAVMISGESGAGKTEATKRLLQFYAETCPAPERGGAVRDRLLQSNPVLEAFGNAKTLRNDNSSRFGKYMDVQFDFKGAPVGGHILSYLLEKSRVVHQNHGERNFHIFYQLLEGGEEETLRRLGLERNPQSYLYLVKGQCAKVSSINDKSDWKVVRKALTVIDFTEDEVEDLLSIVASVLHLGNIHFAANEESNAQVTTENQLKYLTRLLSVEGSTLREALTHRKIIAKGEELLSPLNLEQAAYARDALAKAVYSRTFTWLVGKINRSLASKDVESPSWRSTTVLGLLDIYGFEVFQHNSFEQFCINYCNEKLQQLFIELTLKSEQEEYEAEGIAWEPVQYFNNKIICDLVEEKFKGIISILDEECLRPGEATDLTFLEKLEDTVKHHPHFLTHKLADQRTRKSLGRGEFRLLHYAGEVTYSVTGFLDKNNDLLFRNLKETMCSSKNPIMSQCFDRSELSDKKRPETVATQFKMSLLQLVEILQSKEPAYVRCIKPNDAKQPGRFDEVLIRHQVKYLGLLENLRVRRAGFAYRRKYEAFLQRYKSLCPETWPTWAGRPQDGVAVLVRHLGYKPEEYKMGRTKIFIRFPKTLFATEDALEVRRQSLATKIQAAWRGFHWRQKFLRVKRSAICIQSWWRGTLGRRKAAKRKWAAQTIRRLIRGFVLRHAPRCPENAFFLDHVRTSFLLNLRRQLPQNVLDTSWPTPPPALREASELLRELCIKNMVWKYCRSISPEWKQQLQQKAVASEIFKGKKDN

In turn, `Nc1ncnc2c1ncn2[C@@H]1O[C@H](COP(=O)(O)OP(=O)(O)O)[C@@H](O)[C@H]1O` [ADP] returned a Kd in experiment [1] of 0.23 ± 0.03 µM.

The molecule `Nc1ncnc2c1ncn2[C@@H]1O[C@H](COP(=O)(O)OP(=O)(O)OP(=O)(O)O)[C@@H](O)[C@H]1O` [ATP] registered a dissociation constant Kd in experiment [2] of 405 ± 79 µM.

Usually Kd stands for the concentration at which binding is half-saturated.
